Source: ChEMBL document CHEMBL4229547, “Design, synthesis and biological mechanisms research on 1,2,3-triazole derivatives of Jiyuan Oridonin A” (Bioorg Med Chem, 2018)
Activity calls are given as the source filed them. No cut-off for these calls is given here.

What was measured:
[1] = test system: MGC-803; assay: Induction of apoptosis in human MGC803 cells assessed as early apoptotic cells at 1.5 ug/ml in presence of N-acetyl cysteine by annexin V-FITC/propidium iodide staining-based flow cytometric method (reference value: 1.3%); assay type: functional
[2] = test system: MGC-803; assay: Induction of apoptosis in human MGC803 cells assessed as necrotic cells at 1.5 ug/ml by annexin V-FITC/propidium iodide staining-based flow cytometric method (reference value: 1%); assay type: functional
[3] = test system: MGC-803; assay: Cell cycle arrest in human MGC803 cells assessed as accumulation at G0/G1 phase at 1.5 ug/ml after 48 hrs by propidium iodide staining-based flow cytometric method (reference value: 52.5 +/- 3.71%); assay type: functional
[4] = test system: MGC-803; assay: Cell cycle arrest in human MGC803 cells assessed as accumulation at S phase at 3 ug/ml after 48 hrs by propidium iodide staining-based flow cytometric method (reference value: 32.5 +/- 2.25%); assay type: functional
[5] = test system: MGC-803; assay: Antiproliferative activity against human MGC803 cells after 48 hrs by MTT assay; assay type: functional, cell-based; settings: MGC-803, 48 h
[6] = test system: MGC-803; assay: Cell cycle arrest in human MGC803 cells assessed as accumulation at S phase at 1.5 ug/ml after 48 hrs by propidium iodide staining-based flow cytometric method (reference value: 32.5 +/- 2.25%); assay type: functional
[7] = test system: MGC-803; assay: Induction of apoptosis in human MGC803 cells assessed as decrease in cell number after 24 hrs by inverted microscopic method; assay type: functional, cell-based
[8] = test system: MGC-803; assay: Cell cycle arrest in human MGC803 cells assessed as accumulation at G0/G1 phase at 1.5 ug/ml after 48 hrs in presence of N-acetyl cysteine by propidium iodide staining-based flow cytometric method (reference value: 52.5 +/- 3.71%); assay type: functional
[9] = test system: MGC-803; assay: Cell cycle arrest in human MGC803 cells assessed as accumulation at G0/G1 phase at 3 ug/ml after 48 hrs by propidium iodide staining-based flow cytometric method (reference value: 52.5 +/- 3.71%); assay type: functional
[10] = test system: MGC-803; assay: Induction of apoptosis in human MGC803 cells assessed as necrotic cells at 3 ug/ml by annexin V-FITC/propidium iodide staining-based flow cytometric method (reference value: 1%); assay type: functional
[11] = test system: MGC-803; assay: Induction of apoptosis in human MGC803 cells assessed as viable cells at 3 ug/ml by annexin V-FITC/propidium iodide staining-based flow cytometric method (reference value: 97.6%); assay type: functional; settings: read-out: Activity
[12] = test system: MGC-803; assay: Induction of apoptosis in human MGC803 cells assessed as viable cells at 3 ug/ml in presence of N-acetyl cysteine by annexin V-FITC/propidium iodide staining-based flow cytometric method (reference value: 97.6%); assay type: functional; settings: read-out: Activity
[13] = test system: MGC-803; assay: Antiproliferative activity against human MGC803 cells at 16 to 32 ug/ml after 48 hrs by MTT assay relative to control; assay type: functional
[14] = test system: MGC-803; assay: Induction of apoptosis in human MGC803 cells assessed as increase in apoptotic bodies formation at 1.5 to 6 ug/ml after 24 hrs by Hoechst 33258 staining-based fluorescence microscopic method; assay type: functional, cell-based
[15] = test system: MGC-803; assay: Induction of apoptosis in human MGC803 cells assessed as late apoptotic cells at 1.5 ug/ml in presence of N-acetyl cysteine by annexin V-FITC/propidium iodide staining-based flow cytometric method (reference value: 0.1%); assay type: functional
[16] = test system: MGC-803; assay: Induction of apoptosis in human MGC803 cells assessed as viable cells at 1.5 ug/ml in presence of N-acetyl cysteine by annexin V-FITC/propidium iodide staining-based flow cytometric method (reference value: 97.6%); assay type: functional; settings: read-out: Activity

C=C1C(=O)[C@]23[C@H](O)[C@H]1C[C@H](O)[C@H]2[C@]12CCCC(C)(C)[C@H]1C[C@H]3O[C@@H]2OCCc1cn(Cc2ccc(Cl)cc2)nn1
Activity [1]: 4.2% | Activity [2]: 0.5% | Activity [3]: 46.3% | Activity [4]: 29.6% | IC50 [5]: 2.53 µM | Activity [6]: 29.2% | Activity [7]: Dose-dependent effect | Activity [8]: 55.4% | Activity [9]: 30.5% | Activity [10]: 1.3% | viability at 3 µg/mL [11]: 37.4% | viability at 3 µg/mL [12]: 94% | inhibition (INH) [13]: 90% | Activity [14]: Active | Activity [15]: 0.1% | viability at 1.5 µg/mL [16]: 95%
